IC50 data for 21 compounds are collected here from patent US20100210633A1, “CARBOXAMIDE COMPOUNDS AND THEIR USE” (EPIX Delaware, Inc., priority 2006, published 2010).

Molecules are shown by their SMILES.

In this experiment the target is CCR2 (Homo sapiens, UniProt P41597). The experiment is described as follows: calcium flux assay. It counts as cell-based. The following applies: read-out: IC50 Ca++ flux. The text has this: The capacity of the compounds of the invention to antagonize CCR2 function can be determined using a suitable screen (e.g., high throughput assay). For example, an agent can be tested in an extracellular acidification assay, calcium flux assay, ligand binding assay or chemotaxis assay (see, for example, Hesselgesser et al., J Biol. Chem. 273(25):15687-15692 (1998), WO 00/05265 and WO 98/02151).
CCR2, sequence (P41597 whole entry): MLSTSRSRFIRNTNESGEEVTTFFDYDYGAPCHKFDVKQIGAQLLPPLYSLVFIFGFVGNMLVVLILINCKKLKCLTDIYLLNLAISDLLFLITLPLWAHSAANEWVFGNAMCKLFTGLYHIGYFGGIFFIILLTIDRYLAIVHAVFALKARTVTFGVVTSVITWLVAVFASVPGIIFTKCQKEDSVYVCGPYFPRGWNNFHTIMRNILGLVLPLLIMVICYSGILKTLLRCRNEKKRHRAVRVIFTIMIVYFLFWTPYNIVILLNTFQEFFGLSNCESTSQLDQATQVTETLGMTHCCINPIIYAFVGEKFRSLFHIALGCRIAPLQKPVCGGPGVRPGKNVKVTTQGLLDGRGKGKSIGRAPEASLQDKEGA
For orientation: IC50 means the concentration needed to halve the response being measured. For the compound `CC(C)CC1(C(=O)N[C@H](C)c2cc(C(F)(F)F)cc(C(F)(F)F)c2)CCN(Cc2ccc3c(c2)OCO3)CC1` [Example 44, (R)-1-(Benzo[d][1,3]dioxol-5-ylmethyl)-N-(1-(3,5-bis(trifluoromethyl)phenyl)ethyl)-4-isobutylpiperidine-4-carboxamide], the IC50 is > 1000 nM.
To `CC(C)CC1(C(=O)NCc2cc(C(F)(F)F)cc(C(F)(F)F)c2)CCN(c2ccccn2)CC1` [Example 19, N-(3,5-Bis(trifluoromethyl)benzyl)-4-isobutyl-1-(pyridin-2-yl)piperidine-4-carboxamide] belongs > 1000 nM; to `N#Cc1ccc(Oc2ccc(CN3CCC(CC4CC4)(C(=O)NCc4cc(C(F)(F)F)cc(C(F)(F)F)c4)CC3)cn2)cc1` [Example 67, N-(3,5-Bis(trifluoromethyl)benzyl)-1-((6-(4-cyanophenoxy)pyridin-3-yl)methyl)-4-(cyclopropylmethyl)piperidine-4-carboxamide], 200 to 1000 nM; to `CC(C)(CN1CCC(CC2CC2)(C(=O)NCc2cc(C(F)(F)F)cc(C(F)(F)F)c2)CC1)N1CCOCC1` [Example 69, N-(3,5-Bis(trifluoromethyl)benzyl)-4-(cyclopropylmethyl)-1-(2-methyl-2-morpholinopropyl)piperidine-4-carboxamide], 200 to 1000 nM.
To `O=C(NCc1cc(C(F)(F)F)cc(C(F)(F)F)c1)C1(CC2CCOCC2)CCN(Cc2ccc3c(c2)OCO3)CC1` [Example 27, 1-(Benzo[d][1,3]dioxol-5-ylmethyl)-N-(3,5-bis(trifluoromethyl)benzyl)-4-((tetrahydro-2H-pyran-4-yl)methyl)piperidine-4-carboxamide] belongs > 1000 nM; to `O=C(NCc1cc(C(F)(F)F)cc(C(F)(F)F)c1)C1(CC2CC2)CCN(CC2CCOCC2)C1` (stereo not drawn) [Example 81, N-(3,5-Bis(trifluoromethyl)benzyl)-3-(cyclopropylmethyl)-1-((tetrahydro-2H-pyran-4-yl)methyl)pyrrolidine-3-carboxamide], < 200 nM; to `O=C(NCc1cc(C(F)(F)F)cc(C(F)(F)F)c1)C1(CC2CC2)CCN(Cc2ccc3c(c2)OC(F)(F)O3)CC1` [Example 50, N-(3,5-Bis(trifluoromethyl)benzyl)-4-(cyclopropylmethyl)-1-((2,2-difluorobenzo[d][1,3]dioxol-5-yl)methyl)piperidine-4-carboxamide], < 200 nM.
The result for `COCC1(C(=O)NCc2cc(C(F)(F)F)cc(C(F)(F)F)c2)CCN(CC2CCOCC2)CC1` [Example 11, N-(3,5-Bis(trifluoromethyl)benzyl)-1-((tetrahydro-2H-pyran-4-yl)methyl)-4-(methoxymethyl)piperidine-4-carboxamide] reads > 1000 nM.
As to `O=C(NCc1cc(C(F)(F)F)cc(C(F)(F)F)c1)C1(Cc2ccncc2)CCN(CC2CCOCC2)CC1` [Example 13, N-(3,5-Bis(trifluoromethyl)benzyl)-4-(pyridin-4-ylmethyl)-1-((tetrahydro-2H-pyran-4-yl)methyl)piperidine-4-carboxamide], the IC50 was > 1000 nM.
To `O=C(NCCN1CCCC1)c1cc(CN2CCC(CC3CC3)(C(=O)NCc3cc(C(F)(F)F)cc(C(F)(F)F)c3)CC2)ccc1F` [Example 59, N-(3,5-Bis(trifluoromethyl)benzyl)-4-(cyclopropylmethyl)-1-(4-fluoro-3-(2-(pyrrolidin-1-yl)ethylcarbamoyl)benzyl)piperidine-4-carboxamide] belongs > 1000 nM.
The result for `CC(C)CC1(C(=O)NCc2cc(C(F)(F)F)cc(C(F)(F)F)c2)CCN(Cc2ccc3c(c2)OCO3)CC1` [Example 21, 1-(Benzo[d][1,3]dioxol-5-ylmethyl)-N-(3,5-bis(trifluoromethyl)benzyl)-4-isobutylpiperidine-4-carboxamide] reads 200 to 1000 nM.
The result for `CC(C)CC1(C(=O)NCc2cc(C(F)(F)F)cc(C(F)(F)F)c2)CCN(C2CCC(O)(c3ccc4c(c3)OCO4)CC2)CC1` (stereo not drawn) [Example 26, 1-(4-(Benzo[d][1,3]dioxol-5-yl)-4-hydroxycyclohexyl)-N-(3,5-bis(trifluoromethyl)benzyl)-4-isobutylpiperidine-4-carboxamide] reads 200 to 1000 nM; that for `CCS(=O)(=O)NC(=O)c1cc(CN2CCC(CC3CC3)(C(=O)NCc3cc(C(F)(F)F)cc(C(F)(F)F)c3)CC2)ccc1F` [Example 64, N-(3,5-Bis(trifluoromethyl)benzyl)-4-(cyclopropylmethyl)-1-(3-(ethylsulfonylcarbamoyl)-4-fluorobenzyl)piperidine-4-carboxamide], 200 to 1000 nM.
Take `CC(C)CC1(C(=O)NCc2cc(C(F)(F)F)cc(C(F)(F)F)c2)CCN(CC2CCOCC2)CC1` [Example 12, N-(3,5-Bis(trifluoromethyl)benzyl)-4-isobutyl-1-((tetrahydro-2H-pyran-4-yl)methyl)piperidine-4-carboxamide]: the IC50 was > 1000 nM.
The result for `CC(C)CC1(C(=O)N[C@@H](C)c2cc(C(F)(F)F)cc(C(F)(F)F)c2)CCN(Cc2ccc3c(c2)OCO3)CC1` [Example 45, (S)-1-(benzo[d][1,3]dioxol-5-ylmethyl)-N-(1-(3,5-bis(trifluoromethyl)phenyl)ethyl)-4-isobutylpiperidine-4-carboxamide] reads > 1000 nM; that for `COc1ccc(CN2CCC(CC3CC3)(C(=O)NCc3cc(C(F)(F)F)cc(C(F)(F)F)c3)C2)cc1F` (stereo not drawn) [Example 80, N-(3,5-Bis(trifluoromethyl)benzyl)-3-(cyclopropylmethyl)-1-(3-fluoro-4-methoxybenzyl)pyrrolidine-3-carboxamide], 200 to 1000 nM; that for `O=C(O)c1cc(CN2CCC(CC3CC3)(C(=O)NCc3cc(C(F)(F)F)cc(C(F)(F)F)c3)C2)ccc1F` (stereo not drawn) [Example 79, 5-((3-(3,5-Bis(trifluoromethyl)benzylcarbamoyl)-3-(cyclopropylmethyl)pyrrolidin-1-yl)methyl)-2-fluorobenzoic acid], 200 to 1000 nM.
The result for `CC(C)CC1(C(=O)NCc2cc(C(F)(F)F)cc(C(F)(F)F)c2)CCN(CCN2CCCCC2)CC1` [Example 18, N-(3,5-Bis(trifluoromethyl)benzyl)-4-isobutyl-1-(2-(piperidin-1-yl)ethyl)piperidine-4-carboxamide] reads > 1000 nM; that for `COc1ccc(CN2CCC(CC(C)C)(C(=O)NCc3cc(C(F)(F)F)cc(C(F)(F)F)c3)CC2)cc1O` [Example 30, N-(3,5-Bis(trifluoromethyl)benzyl)-1-(3-hydroxy-4-methoxybenzyl)-4-isobutylpiperidine-4-carboxamide], < 200 nM; that for `CC(C)CC1(C(=O)NCc2cc(C(F)(F)F)cc(C(F)(F)F)c2)CCN(CC(=O)N2CCS(=O)(=O)CC2)CC1` [Example 53, N-(3,5-Bis(trifluoromethyl)benzyl)-4-isobutyl-1-(2-oxo-2-sulphonylmorpholinoethyl)piperidine-4-carboxamide], > 1000 nM.
The result for `CC(C)CC1(C(=O)N2CCN(c3cccc(C(F)(F)F)c3)CC2)CCN(Cc2ccc3c(c2)OCO3)CC1` [Example 40, (1-(Benzo[d][1,3]dioxol-5-ylmethyl)-4-isobutylpiperidin-4-yl)(4-(3-(trifluoromethyl)phenyl)piperazin-1-yl)methanone] reads > 1000 nM.
